Assay results: patent publication US20110136801A1, “Novel Compounds” (Dainippon Sumitomo Pharma Co. Ltd., priority 2009, published 2011)

Target: T1, human TLR7 (Homo sapiens, UniProt Q9NYK1)
T1 construct: expressed in transfected cells; host or cells: HEK293 cell line stably expressing the pNiFty2-SEAP reporter plasmid; TLR7 in pUNO vector, blasticidin selection
T1 sequence (Q9NYK1 27-1049): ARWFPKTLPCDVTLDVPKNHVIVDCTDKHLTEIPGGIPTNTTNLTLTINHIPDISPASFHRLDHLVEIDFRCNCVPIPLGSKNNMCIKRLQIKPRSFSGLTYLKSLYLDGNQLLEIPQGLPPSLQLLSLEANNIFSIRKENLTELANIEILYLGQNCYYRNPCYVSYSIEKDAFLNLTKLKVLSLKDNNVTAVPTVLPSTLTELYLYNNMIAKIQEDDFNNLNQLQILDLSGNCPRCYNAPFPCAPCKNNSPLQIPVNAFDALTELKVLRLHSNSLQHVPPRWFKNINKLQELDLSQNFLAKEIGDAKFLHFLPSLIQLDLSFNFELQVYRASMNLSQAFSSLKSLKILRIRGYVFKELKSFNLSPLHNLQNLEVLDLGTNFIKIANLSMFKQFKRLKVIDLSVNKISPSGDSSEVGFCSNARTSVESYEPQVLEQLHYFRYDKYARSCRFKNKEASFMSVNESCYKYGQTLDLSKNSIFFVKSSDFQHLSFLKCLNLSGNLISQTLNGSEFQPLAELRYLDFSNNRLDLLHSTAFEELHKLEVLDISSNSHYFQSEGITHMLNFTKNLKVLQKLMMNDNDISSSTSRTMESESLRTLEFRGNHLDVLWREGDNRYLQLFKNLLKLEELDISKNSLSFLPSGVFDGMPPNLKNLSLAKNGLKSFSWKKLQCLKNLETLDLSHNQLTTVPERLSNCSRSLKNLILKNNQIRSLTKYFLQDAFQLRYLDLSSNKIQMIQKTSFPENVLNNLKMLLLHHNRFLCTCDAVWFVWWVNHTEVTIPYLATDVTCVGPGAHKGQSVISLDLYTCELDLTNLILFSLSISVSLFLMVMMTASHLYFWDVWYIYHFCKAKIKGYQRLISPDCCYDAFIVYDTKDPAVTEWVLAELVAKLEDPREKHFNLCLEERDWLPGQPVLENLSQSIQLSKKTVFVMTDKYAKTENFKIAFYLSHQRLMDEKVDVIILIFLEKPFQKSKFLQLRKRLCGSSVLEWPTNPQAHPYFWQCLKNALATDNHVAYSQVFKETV
Assay: Human TLR7 Assay (SEAP reporter in HEK293 cells);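 further: Read-out is secreted alkaline phosphatase made under an NFkB/ELAM-1 composite promoter, reporting TLR7-triggered NFkB activation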
Assay type: cell-based
Conditions: HEK293 cell line expressing human TLR7 and pNiFty2-SEAP reporter, overnight incubation at 37° C., 0.1% DMSO; read-out: hTLR7 EC50

Row | EC50 [µM] | Structure (SMILES)
1 | 0.181 | COCCc1nc2c(N)nc3ccccc3c2n1CCCN(Cc1cccc(OC(C)(C)C(=O)OC)c1)C(=O)CN(C)C [Example 149, Methyl 2-{3-[(N-{3-[4-amino-2-(2-methoxyethyl)-1H-imidazo[4,5-c]quinolin-1-yl]propyl}-2-{dimethylamino}acetamido)methyl]phenoxy}-2-methylpropanoate]
2 | 0.0846 | CCOC(=O)C(C)(C)Oc1cccc(CN(CCCn2c(CCOC)nc3c(N)nc4ccccc4c32)C(=O)CN(C)CC)c1 [Example 150, Ethyl 2-{3-[(N-{3-[4-amino-2-(2-methoxyethyl)-1H-imidazo[4,5-c]quinolin-1-yl]propyl}-2-{ethyl(methyl)amino}acetamido)methyl]phenoxy}-2-methylpropanoate]
3 | 0.082 | CCN(C)CC(=O)N(CCCn1c(CCOC)nc2c(N)nc3ccccc3c21)Cc1cccc(OC(C)(C)C(=O)OC)c1 [Example 151, Methyl 2-{3-[(N-{3-[4-amino-2-(2-methoxyethyl)-1H-imidazo[4,5-c]quinolin-1-yl]propyl}-2-{ethyl(methyl)amino}acetamido)methyl]phenoxy}-2-methylpropanoate]
4 | 0.266 | COCCc1nc2c(N)nc3ccccc3c2n1CCOCCN(Cc1cccc(OCC(=O)OC(C)C)c1)C(=O)NCCN1CCCCC1 [Example 152, Isopropyl 2-(3-{[1-(2-{2-[4-amino-2-(2-methoxyethyl)-1H-imidazo[4,5-c]quinolin-1-yl]ethoxy}ethyl)-3-{2-(piperidin-1-yl)ethyl}ureido]methyl}phenoxy)acetate]
5 | 0.0861 | CCCCc1nc2c(N)nc3ccccc3c2n1CCCN(Cc1cccc(OC(C)(C)C(=O)OCC)c1)C(=O)CN(CC)CC [Example 153, Ethyl 2-[3-({N-[3-(4-amino-2-butyl-1H-imidazo[4,5-c]quinolin-1-yl)propyl]-2-(diethylamino)acetamido}methyl)phenoxy]-2-methylpropanoate]
6 | 0.235 | CCCCc1nc2c(N)nc3ccccc3c2n1CCCN(Cc1cccc(OC(C)(C)C(=O)OCC)c1)C(=O)CN(C)C [Example 155, Ethyl 2-[3-({N-[3-(4-amino-2-butyl-1H-imidazo[4,5-c]quinolin-1-yl)propyl]-2-(dimethylamino)acetamido}methyl)phenoxy]-2-methylpropanoate]
7 | 0.168 | CCCCc1nc2c(N)nc3ccccc3c2n1CCCN(Cc1cccc(OC(C)(C)C(=O)OC)c1)C(=O)CN(C)C [Example 156, Methyl 2-[3-({N-[3-(4-amino-2-butyl-1H-imidazo[4,5-c]quinolin-1-yl)propyl]-2-(dimethylamino)acetamido}methyl)phenoxy]-2-methylpropanoate]
8 | 0.1 | CCCCc1nc2c(N)nc3ccccc3c2n1CCCN(Cc1cccc(OCC(=O)OC(C)C)c1)C(=O)CN(CC)CC [Example 157, Isopropyl 2-[3-({N-[3-(4-amino-2-butyl-1H-imidazo[4,5-c]quinolin-1-yl)propyl]-2-(diethylamino)acetamido}methyl)phenoxy]acetate]
9 | 0.139 | CCCCc1nc2c(N)nc3ccccc3c2n1CCCN(Cc1cccc(OCC(=O)OC(C)C)c1)C(=O)CN(C)C [Example 159, Isopropyl 2-[3-({N-[3-(4-amino-2-butyl-1H-imidazo[4,5-c]quinolin-1-yl)propyl]-2-(dimethylamino)acetamido}methyl)phenoxy]acetate]
10 | 0.26 | CCCc1nc2c(N)nc3ccccc3c2n1CCCN(Cc1cccc(OCC(=O)OC(C)C)c1)C(=O)CN(CC)CC [Example 160, Isopropyl 2-[3-({N-[3-(4-amino-2-propyl-1H-imidazo[4,5-c]quinolin-1-yl)propyl]-2-(diethylamino)acetamido}methyl)phenoxy]acetate]
11 | 0.0964 | CCOCc1nc2c(N)nc3ccccc3c2n1CCCN(Cc1cccc(OC(C)(C)C(=O)OCC)c1)C(=O)CN(CC)CC [Example 162, Ethyl 2-{3-[(N-{3-[4-amino-2-(ethoxymethyl)-1H-imidazo[4,5-c]quinolin-1-yl]propyl}-2-{diethylamino}acetamido)methyl]phenoxy}-2-methylpropanoate]
12 | 0.158 | CCCCc1nc2c(N)nc3ccccc3c2n1CCCN(Cc1cccc(OCC(=O)OC(C)C)c1F)C(=O)CN(CC)CC [Example 164, Isopropyl 2-[3-({N-[3-(4-amino-2-butyl-1H-imidazo[4,5-c]quinolin-1-yl)propyl]-2-(diethylamino)acetamido}methyl)-2-fluorophenoxy]acetate]
13 | 0.297 | CCCCc1nc2c(N)nc3ccccc3c2n1CCCN(Cc1cccc(OCC(=O)OC(C)C)c1F)C(=O)CN(C)C [Example 165, Isopropyl 2-[3-({N-[3-(4-amino-2-butyl-1H-imidazo[4,5-c]quinolin-1-yl)propyl]-2-(dimethylamino)acetamido}methyl)-2-fluorophenoxy]acetate]
14 | 0.475 | CCOCc1nc2c(N)nc3ccccc3c2n1CCCN(Cc1cccc(OCC(=O)OC(C)C)c1F)C(=O)CN(CC)CC [Example 166, Isopropyl 2-{3-[(N-{3-[4-amino-2-(ethoxymethyl)-1H-imidazo[4,5-c]quinolin-1-yl]propyl}-2-{diethylamino}acetamido)methyl]-2-fluorophenoxy}acetate]
15 | 0.716 | CCOCc1nc2c(N)nc3ccccc3c2n1CCCN(Cc1cccc(OCC(=O)OC(C)C)c1F)C(=O)CN(C)C [Example 167, Isopropyl 2-{3-[(N-{3-[4-amino-2-(ethoxymethyl)-1H-imidazo[4,5-c]quinolin-1-yl]propyl}-2-{dimethylamino}acetamido)methyl]-2-fluorophenoxy}acetate]
16 | 0.166 | CCCCc1nc2c(N)nc3ccccc3c2n1CCCN(Cc1cccc(OC(C)(C)C(=O)OCC)c1)C(=O)CN1CCCC1 [Example 168, Ethyl 2-[3-({N-[3-(4-amino-2-butyl-1H-imidazo[4,5-c]quinolin-1-yl)propyl]-2-(pyrrolidin-1-yl)acetamido}methyl)phenoxy]-2-methylpropanoate]
17 | 0.155 | CCCCc1nc2c(N)nc3ccccc3c2n1CCCN(Cc1cccc(OC(C)(C)C(=O)OC)c1)C(=O)CN1CCCC1 [Example 169, Methyl 2-[3-({N-[3-(4-amino-2-butyl-1H-imidazo[4,5-c]quinolin-1-yl)propyl]-2-(pyrrolidin-1-yl)acetamido}methyl)phenoxy]-2-methylpropanoate]
18 | 0.521 | CCOCc1nc2c(N)nc3ccccc3c2n1CCCN(Cc1cccc(OC(C)(C)C(=O)OCC)c1)C(=O)CN1CCCC1 [Example 170, Ethyl 2-{3-[(N-{3-[4-amino-2-(ethoxymethyl)-1H-imidazo[4,5-c]quinolin-1-yl]propyl}-2-{pyrrolidin-1-yl}acetamido)methyl]phenoxy}-2-methylpropanoate]
19 | 0.56 | CCOCc1nc2c(N)nc3ccccc3c2n1CCCN(Cc1cccc(OC(C)(C)C(=O)OC)c1)C(=O)CN1CCCC1 [Example 171, Methyl 2-{3-[(N-{3-[4-amino-2-(ethoxymethyl)-1H-imidazo[4,5-c]quinolin-1-yl]propyl}-2-{pyrrolidin-1-yl}acetamido)methyl]phenoxy}-2-methylpropanoate]
20 | 0.434 | CCOCc1nc2c(N)nc3ccccc3c2n1CCCN(Cc1cccc(OCC(=O)OC(C)C)c1)C(=O)CN1CCCC1 [Example 172, Isopropyl 2-{3-[(N-{3-[4-amino-2-(ethoxymethyl)-1H-imidazo[4,5-c]quinolin-1-yl]propyl}-2-{pyrrolidin-1-yl}acetamido)methyl]phenoxy}acetate]
21 | 0.117 | CCCOCc1nc2c(N)nc3ccccc3c2n1CCCN(Cc1cccc(OC(C)(C)C(=O)OC)c1)C(=O)CN(CC)CC [Example 174, Methyl 2-{3-[(N-{3-[4-amino-2-(propoxymethyl)-1H-imidazo[4,5-c]quinolin-1-yl]propyl}-2-{diethylamino}acetamido)methyl]phenoxy}-2-methylpropanoate]
